According to patent US20060069132A1, “Azolecarboxamide herbicides” (priority 2004, published 2006):

Tests used:
wheat = test: Test B postemergence herbicide test; format: in vivo, Triticum aestivum; parameters: key to Wheat plant response rating: 0 = no effect, 100 = complete control
Summary of the method: (§1)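 Formulated test chemicals went onto postemergence plants measuring 2 to 18 cm, at one to four leaves. For the paddy assay, species had reached two leaves. Scoring took place 13–15 days later by eye, relative to untreated plants, using 0 for no effect up to 100 for full control.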

rice [1] = test: Test B flooded paddy test; format: in vivo, Oryza sativa; settings: 1000 g ai/ha, scale 0 to 100 (0 no effect, 100 complete control)
Summary of the method: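 Visual ratings, 0 (no effect) to 100 (complete control), made versus controls after 13–15 d greenhouse. Paddy plants treated at 2-leaf stage; postemergence plants at 1- to 4-leaf stage, 2–18 cm tall.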

ducksalad [2] = test: Test C flooded paddy test; format: in vivo, Heteranthera limosa
Surinam grass = test: Test B pre-/postemergence herbicide test; format: in vivo, Urochloa decumbens; settings: for Surinam Grass plant response rating: scale 0 (no effect) to 100 (complete control)
Summary of the method: (§2)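 Seeds were planted and treated preemergence with compounds formulated in a non-phytotoxic solvent mixture containing surfactant, while plants at the 1- to 4-leaf stage (2 to 18 cm) received postemergence sprays. Flooded paddy plants were grown to the 2-leaf stage. After 13 to 15 days in a greenhouse, injury was visually rated 0–100 against untreated controls.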

giant foxtail = test: Test B pre-/postemergence herbicide test; format: in vivo, Setaria faberi; settings: for Foxtail, Giant plant response rating: scale 0 (no effect) to 100 (complete control)
Summary of the method: as §2

blackgrass = test: Test B postemergence herbicide test; format: in vivo, Alopecurus myosuroides; settings: scale 0 (no effect) to 100 (complete control)
Summary of the method: as §1

barnyardgrass [3] = test: Test C flooded paddy test; format: in vivo, Echinochloa crus-galli
Summary of the method: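 Greenhouse test with a 12–14 day hold after application and visual comparison with controls. Emerged plants were 1- to 4-leaf stage (2–18 cm) when sprayed postemergence, and the paddy barnyardgrass was at 2 leaves under flooded conditions. 100 = complete control.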

barnyardgrass [4] = test: Test B pre-/postemergence herbicide test; format: in vivo, Echinochloa crus-galli; settings: for Barnyardgrass plant response rating: scale 0 (no effect) to 100 (complete control)
Summary of the method: (§3)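 Plants compared with untreated controls 13–15 days post-treatment and given a visual 0–100 injury score. Applications: preemergence to seeds; postemergence at 1- to 4-leaf (2–18 cm); paddy species flooded, 2-leaf stage. Vehicle non-phytotoxic, surfactant included.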

lambsquarters = test: Test B pre-/postemergence herbicide test; format: in vivo, Chenopodium album; settings: for Lambsquarters plant response rating: scale 0 (no effect) to 100 (complete control)
Summary of the method: as §2

cocklebur = test: Test B pre-/postemergence herbicide test; format: in vivo, Xanthium strumarium; settings: for Cocklebur plant response rating: scale 0 (no effect) to 100 (complete control)
Summary of the method: as §3

morningglory = test: Test B pre-/postemergence herbicide test; format: in vivo, Ipomoea coccinea; settings: for Morningglory plant response rating: scale 0 (no effect) to 100 (complete control)
Summary of the method: as §3

barnyardgrass [5] = test: Test B flooded paddy test; format: in vivo, Echinochloa crus-galli; settings: 1000 g ai/ha, scale 0 to 100 (0 no effect, 100 complete control)
Summary of the method: as §1

[6] = system: small flower umbrella sedge; test: Test B flooded paddy test; format: in vivo, Cyperus difformis; settings: 1000 g ai/ha, scale 0 to 100 (0 no effect, 100 complete control)
Summary of the method: as §1

wild oat = test: Test B postemergence herbicide test; format: in vivo, Avena fatua; settings: scale 0 (no effect) to 100 (complete control)
Summary of the method: as §1

[7] = system: smallflower umbrella sedge; test: Test C flooded paddy test; format: in vivo, Cyperus difformis
large crabgrass = test: Test B pre-/postemergence herbicide test; format: in vivo, Digitaria sanguinalis; settings: for Crabgrass, Large plant response rating: scale 0 (no effect) to 100 (complete control)
Summary of the method: as §2

corn = test: Test B pre-/postemergence herbicide test; format: in vivo, Zea mays; settings: for Corn plant response rating: scale 0 (no effect) to 100 (complete control)
Summary of the method: as §2

ducksalad [8] = test: Test B flooded paddy test; format: in vivo, Heteranthera limosa; settings: 1000 g ai/ha, scale 0 to 100 (0 no effect, 100 complete control)
Summary of the method: as §1

velvetleaf = test: Test B pre-/postemergence herbicide test; format: in vivo, Abutilon theophrasti; settings: for Velvetleaf plant response rating: scale 0 (no effect) to 100 (complete control)
Summary of the method: as §2

pigweed = test: Test B pre-/postemergence herbicide test; format: in vivo, Amaranthus retroflexus; settings: for Pigweed plant response rating: scale 0 (no effect) to 100 (complete control)
Summary of the method: as §2

rice [9] = test: Test C flooded paddy test; format: in vivo, Oryza sativa
Summary of the method: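 Injury scored visually against controls on a 0 (no effect) to 100 (complete control) scale, 12 to 14 days after treatment in greenhouse. Flooded paddy plants treated at 2-leaf stage; postemergence plants at 1- to 4-leaf stage, 2 to 18 cm tall.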

[10] = 125 g ai/ha, scale 0 to 100 (0 no effect, 100 complete control)
[11] = 250 g ai/ha, scale of 0 to 100, 0 is no effect, 100 is complete control
[12] = 500 g ai/ha, visual rating after 12 to 14 days, scale 0 to 100 (0 no effect, 100 complete control)
[13] = 125 g ai/ha, 0 is no effect, 100 is complete control, preemergence
[14] = 125 g ai/ha, visual rating, postemergence

`C#CCNC(=O)c1cccc(NC(=O)c2nn(C(C)(C)C)nc2C)c1` [Compound 394] was tested, and the “Wheat plant response rating” value (wheat; 125 g ai/ha, visual rating, scale 0 (no effect) to 100 (complete control), postemergence) was 0, the “Wheat plant response rating” value (wheat; 500 g ai/ha, scale 0 to 100, 0 no effect, 100 complete control, preemergence) was 20 and the “Wheat plant response rating” value (wheat; Postemergence, 500 g ai/ha, scale 0 (no effect) to 100 (complete control)) was 0. For the same molecule, the “Rice plant response rating” value (rice [1]) was 60, the “Ducksalad plant response rating” value (ducksalad [2]; 62 g ai/ha, scale 0 to 100) was 0 and the “Ducksalad plant response rating” value (ducksalad [2]; [10]) was 0. The “Ducksalad plant response rating” value (ducksalad [2]; [11]) was 10, the “Plant response rating, Ducksalad” value (ducksalad [2]; [12]) was 45 and the “Plant response rating (0 to 100 scale), Surinam Grass” value (Surinam grass; [13]) was 10. For the same molecule, the “Surinam Grass plant response rating” value (Surinam grass; [14]) was 10, the “Surinam Grass plant response rating” value (Surinam grass; Postemergence, 500 g ai/ha) was 20 and the “Plant response rating (0 to 100 scale), Foxtail, Giant” value (giant foxtail; [13]) was 10. For the same molecule, the “Foxtail, Giant plant response rating” value (giant foxtail; [14]) was 20, the “Foxtail, Giant plant response rating” value (giant foxtail; Postemergence, 500 g ai/ha) was 30 and the “Blackgrass plant response rating” value (blackgrass; [14]) was 0. For the same molecule, the “Blackgrass plant response rating” value (blackgrass; Postemergence, 500 g ai/ha) was 20, the “Barnyardgrass plant response rating” value (barnyardgrass [3]; 62 g ai/ha, scale 0 to 100 (0 no effect, 100 complete control)) was 0 and the “Barnyardgrass plant response rating” value (barnyardgrass [3]; [10]) was 0. For the same molecule, the “Barnyardgrass plant response rating” value (barnyardgrass [3]; [11]) was 0, the “Plant response rating, Barnyardgrass” value (barnyardgrass [3]; [12]) was 20 and the “Plant response rating (0 to 100 scale), Barnyardgrass” value (barnyardgrass [4]; [13]) was 30. The “Barnyardgrass plant response rating” value (barnyardgrass [4]; [14]) was 0, the “Barnyardgrass plant response rating” value (barnyardgrass [4]; Postemergence, 500 g ai/ha) was 10 and the “Plant response rating (0 to 100 scale), Lambsquarters” value (lambsquarters; [13]) was 10. For the same molecule, the “Lambsquarters plant response rating” value (lambsquarters; [14]) was 30, the “Lambsquarters plant response rating” value (lambsquarters; Postemergence, 500 g ai/ha) was 60 and the “Plant response rating (0 to 100 scale), Cocklebur” value (cocklebur; [13]) was 20. The “Cocklebur plant response rating” value (cocklebur; [14]) was 10, the “Cocklebur plant response rating” value (cocklebur; Postemergence, 500 g ai/ha) was 20 and the “Plant response rating (0 to 100 scale), Morningglory” value (morningglory; [13]) was 0. For the same molecule, the “Morningglory plant response rating” value (morningglory; [14]) was 20, the “Morningglory plant response rating” value (morningglory; Postemergence, 500 g ai/ha) was 20 and the “Barnyardgrass plant response rating” value (barnyardgrass [5]) was 70. The “Sedge, Umbrella plant response rating” value [6] was 90, the “Oat, Wild plant response rating” value (wild oat; [14]) was 0 and the “Oat, Wild plant response rating” value (wild oat; Postemergence, 500 g ai/ha) was 0. For the same molecule, the “Sedge, Umbrella plant response rating” value ([7]; 62 g ai/ha, scale 0 to 100) was 0, the “Sedge, Umbrella plant response rating” value [7, 10] was 35 and the “Sedge, Umbrella plant response rating” value [7, 11] was 60. For the same molecule, the “Plant response rating, Sedge, Umbrella” value [7, 12] was 70, the “Plant response rating (0 to 100 scale), Crabgrass, Large” value (large crabgrass; [13]) was 40 and the “Crabgrass, Large plant response rating” value (large crabgrass; [14]) was 10. For the same molecule, the “Crabgrass, Large plant response rating” value (large crabgrass; Postemergence, 500 g ai/ha) was 20, the “Plant response rating (0 to 100 scale), Corn” value (corn; [13]) was 0 and the “Corn plant response rating” value (corn; [14]) was 0. The “Corn plant response rating” value (corn; Postemergence, 500 g ai/ha) was 10, the “Ducksalad plant response rating” value (ducksalad [8]) was 80 and the “Plant response rating (0 to 100 scale), Velvetleaf” value (velvetleaf; [13]) was 0. For the same molecule, the “Velvetleaf plant response rating” value (velvetleaf; [14]) was 10, the “Velvetleaf plant response rating” value (velvetleaf; Postemergence, 500 g ai/ha) was 30 and the “Plant response rating (0 to 100 scale), Pigweed” value (pigweed; [13]) was 10. The “Pigweed plant response rating” value (pigweed; [14]) was 30, the “Pigweed plant response rating” value (pigweed; Postemergence, 500 g ai/ha) was 60 and the “Rice plant response rating” value (rice [9]; 62 g ai/ha, scale 0 to 100) was 0. The “Rice plant response rating” value (rice [9]; [10]) was 0, the “Rice plant response rating” value (rice [9]; [11]) was 45 and the “Plant response rating, Rice” value (rice [9]; [12]) was 60.
